Legend:
hSERT = biological target: T1, hSERT (Homo sapiens, UniProt P31645); format: binding
T1 construct: expressed in transfected cells
Procedure: (§1) Membranes were prepared from HEK293 cells stably expressing hSERT, hNET, or hDAT as described previously. Briefly, [^3H]-citalopram (1 nM), [^3H]-nisoxetine (2 nM), or [^3H]-WIN35,428 (2 nM) was used to label human 5-HT, NE, or DA transporters, respectively.
(§2) All data for inhibition curves were analysed by nonlinear regression using Prism software (GraphPad Software Inc., San Diego, CA) to determine IC50 values. For the microdialysis experiments, two-way repeated-measures ANOVA followed by Tukey’s test was used to compare the percentage increase over baseline between groups, time and treatment as independent factors, and time as the repeated factor.

hNET [1] = biological target: T2, hNET (Homo sapiens, UniProt P23975); experiment: Human monoamine transporter binding assay, NET
T2 construct: expressed in transfected cells
T2 sequence (P23975 whole entry): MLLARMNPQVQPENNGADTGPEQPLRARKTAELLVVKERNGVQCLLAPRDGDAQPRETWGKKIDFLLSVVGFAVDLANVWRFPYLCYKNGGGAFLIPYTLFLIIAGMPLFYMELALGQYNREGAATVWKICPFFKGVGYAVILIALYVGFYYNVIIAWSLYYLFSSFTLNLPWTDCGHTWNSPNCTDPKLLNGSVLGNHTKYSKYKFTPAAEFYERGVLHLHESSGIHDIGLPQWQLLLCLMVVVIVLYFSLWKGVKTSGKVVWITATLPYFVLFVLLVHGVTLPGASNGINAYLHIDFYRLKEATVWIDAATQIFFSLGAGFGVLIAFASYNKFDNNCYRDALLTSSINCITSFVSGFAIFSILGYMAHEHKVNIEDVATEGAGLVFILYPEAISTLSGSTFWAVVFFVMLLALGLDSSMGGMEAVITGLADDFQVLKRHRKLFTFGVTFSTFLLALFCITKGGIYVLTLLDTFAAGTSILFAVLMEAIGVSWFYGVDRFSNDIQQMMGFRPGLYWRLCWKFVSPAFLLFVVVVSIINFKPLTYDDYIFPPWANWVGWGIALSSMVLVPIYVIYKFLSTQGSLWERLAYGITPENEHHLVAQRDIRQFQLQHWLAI
Procedure: as §1, §2

hNET [2] = biological target: T2, hNET; experiment: [3H]-NE uptake in transporter-transfected HEK293 cells; format: cell-based; conditions: HEK293 cell line, read-out: IC50 values, uptake of [3H]-NE (NET)
Procedure: The uptake of 5-HT, NE and DA into HEK293 cells stably expressing human transporters was determined using methods previously described with slight modifications. Briefly, the culture medium was removed from cells, and the cells were washed once with phosphate-buffered saline. Krebs-Ringers-HEPES (KRH) assay buffer (100 μL/well, containing 120 mM NaCl, 4.7 mM KCl, 2.2 mM CaCl2, 1.2 mM MgSO4, 1.2 mM […], 10 mM HEPES, pH 7.4) was then added. Various concentrations of drugs were administered to cells in a 24-well plate. The uptake was initiated by the addition of [^3H]-5-HT (50 nM), [^3H]-NE (80 nM), or [^3H]-DA (50 nM). Uptake was terminated by five washes using cold KRH assay buffer after 10-min incubation at 37 °C. The cells were solubilised using 400 μL of scintillation fluid and counted using a Packard Top Count scintillation counter.
as §2

D4 = biological target: T3, D4 (Homo sapiens, UniProt P21917); experiment: CNS receptor binding, dopamine D4; conditions: HEK293 cell line, [3H]-spiperone(1)
T3 construct: expressed in transfected cells; host or cells: HEK293 cell line
T3 sequence (P21917 whole entry): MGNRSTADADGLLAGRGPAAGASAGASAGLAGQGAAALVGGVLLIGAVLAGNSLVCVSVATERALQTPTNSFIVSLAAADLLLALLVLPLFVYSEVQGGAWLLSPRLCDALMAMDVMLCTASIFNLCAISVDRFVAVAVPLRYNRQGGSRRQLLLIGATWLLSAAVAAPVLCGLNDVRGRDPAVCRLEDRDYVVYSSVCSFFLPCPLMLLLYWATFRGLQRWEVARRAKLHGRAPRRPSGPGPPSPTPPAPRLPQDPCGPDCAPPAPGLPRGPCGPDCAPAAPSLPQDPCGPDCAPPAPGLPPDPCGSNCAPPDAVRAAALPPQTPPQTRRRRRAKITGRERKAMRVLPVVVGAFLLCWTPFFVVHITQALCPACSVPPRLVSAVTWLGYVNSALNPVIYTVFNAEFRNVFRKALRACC
Procedure: (§3) Albiflorin (10 μM) was tested for numerous other potential binding targets by using standard receptor binding procedures. The tested targets included the following receptors: D1, D2, D3, D4, D5, 5-HT1A, 5-HT1B, 5-HT1D, 5-HT2a, 5-HT2C, 5-HT3, 5-HT5A, 5-HT6, 5-HT7, α1A, α1B, α2A, β1, M1, M2, M3, M4, M5, μ, κ, δ, A1, A2A, H1, H2, H3, H4.

5-HT3 = 5-HT3 (Homo sapiens, UniProt P46098); experiment: CNS receptor binding, 5-HT3; conditions: HEK293 cell line
Chain of 5-HT3 (P46098 24-478): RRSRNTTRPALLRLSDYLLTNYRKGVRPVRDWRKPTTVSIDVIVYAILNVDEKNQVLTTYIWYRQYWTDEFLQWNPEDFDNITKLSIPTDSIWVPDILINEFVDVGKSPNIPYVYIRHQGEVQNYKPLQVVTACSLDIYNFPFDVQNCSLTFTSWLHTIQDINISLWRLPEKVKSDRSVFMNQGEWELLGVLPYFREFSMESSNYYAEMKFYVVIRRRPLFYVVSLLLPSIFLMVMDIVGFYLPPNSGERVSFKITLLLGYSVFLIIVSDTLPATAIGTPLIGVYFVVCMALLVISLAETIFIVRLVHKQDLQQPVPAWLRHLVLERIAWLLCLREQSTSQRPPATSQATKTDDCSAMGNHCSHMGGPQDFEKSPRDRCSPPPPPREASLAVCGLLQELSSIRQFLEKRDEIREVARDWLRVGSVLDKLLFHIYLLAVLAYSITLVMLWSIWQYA
Procedure: as §3

5-HT7 = 5-HT7 (Homo sapiens, UniProt P34969); experiment: CNS receptor binding, 5-HT7; conditions: HEK293 cell line, [3H]-LSD(4)
Chain of 5-HT7 (P34969 whole entry): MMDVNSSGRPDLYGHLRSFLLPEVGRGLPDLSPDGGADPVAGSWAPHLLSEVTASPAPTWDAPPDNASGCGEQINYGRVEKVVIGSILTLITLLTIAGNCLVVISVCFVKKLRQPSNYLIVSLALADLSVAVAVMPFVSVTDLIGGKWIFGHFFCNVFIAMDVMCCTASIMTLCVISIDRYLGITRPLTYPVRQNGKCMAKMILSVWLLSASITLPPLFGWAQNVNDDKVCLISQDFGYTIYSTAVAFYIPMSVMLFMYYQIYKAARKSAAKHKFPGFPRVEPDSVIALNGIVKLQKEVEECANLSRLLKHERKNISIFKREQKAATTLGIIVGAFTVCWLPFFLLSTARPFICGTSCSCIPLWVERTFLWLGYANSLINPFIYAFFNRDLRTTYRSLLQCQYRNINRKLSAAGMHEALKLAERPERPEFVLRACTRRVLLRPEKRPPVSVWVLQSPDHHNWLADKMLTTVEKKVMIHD
Procedure: as §3

α1B = α1B (Homo sapiens, UniProt P35368); experiment: CNS receptor binding, NE receptor α1B; conditions: HEK293 cell line, [3H]-parzosin(1)
Chain of α1B (P35368 whole entry): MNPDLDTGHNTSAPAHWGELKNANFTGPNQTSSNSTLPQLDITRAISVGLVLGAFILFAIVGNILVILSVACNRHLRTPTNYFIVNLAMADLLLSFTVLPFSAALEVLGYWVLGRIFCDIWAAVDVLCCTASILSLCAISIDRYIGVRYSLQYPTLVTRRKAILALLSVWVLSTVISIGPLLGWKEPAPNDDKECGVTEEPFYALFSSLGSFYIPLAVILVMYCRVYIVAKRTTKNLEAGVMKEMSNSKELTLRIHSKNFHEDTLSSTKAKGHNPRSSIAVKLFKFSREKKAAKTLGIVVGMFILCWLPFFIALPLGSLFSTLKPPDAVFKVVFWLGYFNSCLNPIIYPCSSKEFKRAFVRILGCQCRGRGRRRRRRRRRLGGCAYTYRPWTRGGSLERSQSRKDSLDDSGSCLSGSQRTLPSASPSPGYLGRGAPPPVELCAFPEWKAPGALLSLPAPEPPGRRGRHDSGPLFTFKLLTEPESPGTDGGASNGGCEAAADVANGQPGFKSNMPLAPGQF
Procedure: as §3

β1 = β1 (Homo sapiens, UniProt P08588); experiment: CNS receptor binding, NE receptor β1; conditions: HEK293 cell line, [3H]-DHA(1)
Chain of β1 (P08588 whole entry): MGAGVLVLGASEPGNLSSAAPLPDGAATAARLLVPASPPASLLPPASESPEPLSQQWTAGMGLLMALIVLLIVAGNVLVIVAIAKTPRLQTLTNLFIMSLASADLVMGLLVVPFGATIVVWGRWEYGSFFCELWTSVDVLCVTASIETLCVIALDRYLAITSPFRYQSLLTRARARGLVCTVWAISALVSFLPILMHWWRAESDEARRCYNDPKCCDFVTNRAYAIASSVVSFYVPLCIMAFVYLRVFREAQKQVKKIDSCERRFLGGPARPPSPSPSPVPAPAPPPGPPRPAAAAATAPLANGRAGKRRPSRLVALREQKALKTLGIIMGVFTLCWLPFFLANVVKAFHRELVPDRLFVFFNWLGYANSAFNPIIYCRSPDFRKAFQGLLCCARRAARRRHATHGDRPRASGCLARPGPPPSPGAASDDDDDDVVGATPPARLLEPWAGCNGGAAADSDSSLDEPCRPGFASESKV
Procedure: as §3

δ = δ (Homo sapiens, UniProt P41143); experiment: CNS receptor binding, opioid δ; conditions: CHO cell line, [3H]-dipnorphine(1)
Chain of δ (P41143 whole entry): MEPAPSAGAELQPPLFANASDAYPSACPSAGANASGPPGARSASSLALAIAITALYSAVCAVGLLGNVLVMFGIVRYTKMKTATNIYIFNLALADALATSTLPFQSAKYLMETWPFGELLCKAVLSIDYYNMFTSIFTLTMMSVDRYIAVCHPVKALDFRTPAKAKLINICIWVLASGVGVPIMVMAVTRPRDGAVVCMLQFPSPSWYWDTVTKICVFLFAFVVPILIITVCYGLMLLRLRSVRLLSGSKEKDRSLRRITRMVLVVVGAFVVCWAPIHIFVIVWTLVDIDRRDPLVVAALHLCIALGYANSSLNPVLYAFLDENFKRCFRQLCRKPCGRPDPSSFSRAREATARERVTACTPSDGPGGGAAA
Procedure: as §3

H3 = H3 (Homo sapiens, UniProt Q9Y5N1); experiment: CNS receptor binding, histamine H3; conditions: CHO cell line, [3H]-hestamine(1)
Chain of H3 (Q9Y5N1 whole entry): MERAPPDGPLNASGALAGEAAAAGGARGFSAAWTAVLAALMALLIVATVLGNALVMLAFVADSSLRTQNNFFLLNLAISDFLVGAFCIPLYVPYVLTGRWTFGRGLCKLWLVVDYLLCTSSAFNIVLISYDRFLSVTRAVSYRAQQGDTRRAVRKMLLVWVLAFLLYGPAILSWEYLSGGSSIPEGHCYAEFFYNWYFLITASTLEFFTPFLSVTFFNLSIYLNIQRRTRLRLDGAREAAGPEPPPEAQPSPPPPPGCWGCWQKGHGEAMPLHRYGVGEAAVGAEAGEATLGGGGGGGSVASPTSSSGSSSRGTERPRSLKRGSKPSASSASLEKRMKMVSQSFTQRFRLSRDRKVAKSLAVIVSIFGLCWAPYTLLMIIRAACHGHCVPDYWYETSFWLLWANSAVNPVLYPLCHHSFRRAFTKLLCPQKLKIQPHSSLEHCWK
Procedure: as §3

hypothalamic 5-HT levels = experiment: In vivo microdialysis, extracellular 5-HT; design: species or system rats
Procedure: (§4) The effect of albiflorin on extracellular monoamine levels in […] was determined using methods previously described. Microdialysis probes (CMA Microdialysis) with an active membrane surface of 2 mm were perfused with artificial cerebrospinal fluid (125 mM NaCl, 3 mM KCl, 0.75 mM MgSO4 and 1.2 mM CaCl2, pH 7.4) in situ for at least 18 h before experimentation. The microdialysis probe was then implanted via the guide cannula into the hypothalamus and perfused with artificial cerebral spinal fluid at a flow rate of 1 μL/min. A 3-h stabilisation period was allowed after probe implantation, and dialysate sampling was conducted according to previously described methods. […] All subsequent values were expressed as a percentage of the mean preinjection value (i.e., percentage of baseline). […] For a minimum of 3 h after albiflorin administration, dialysis samples were collected every 20 min and analysed to determine the levels of NE, 5-HT and DA. […] A 20-μL sample from the hypothalamus was analysed for 5-HT, NE and DA content using methods described previously. […] External standard curves were used to quantify the amounts of NE, 5-HT and DA in each sample, which was calculated using the area under the curve.
(§5) All data for inhibition curves were analysed by nonlinear regression using Prism software (GraphPad Software Inc., San Diego, CA) to determine IC50 values. […]

hypothalamic NE levels = experiment: In vivo microdialysis, extracellular NE; design: species or system rats
Procedure: as §4, §5

duration of immobility = test system: duration of immobility; design: method as in PMID 26719283; conditions: mice; short- and long-term administration; cited from earlier work
[3] = read-out: IC50 values for albiflorin

T1 sequence (P31645 whole entry): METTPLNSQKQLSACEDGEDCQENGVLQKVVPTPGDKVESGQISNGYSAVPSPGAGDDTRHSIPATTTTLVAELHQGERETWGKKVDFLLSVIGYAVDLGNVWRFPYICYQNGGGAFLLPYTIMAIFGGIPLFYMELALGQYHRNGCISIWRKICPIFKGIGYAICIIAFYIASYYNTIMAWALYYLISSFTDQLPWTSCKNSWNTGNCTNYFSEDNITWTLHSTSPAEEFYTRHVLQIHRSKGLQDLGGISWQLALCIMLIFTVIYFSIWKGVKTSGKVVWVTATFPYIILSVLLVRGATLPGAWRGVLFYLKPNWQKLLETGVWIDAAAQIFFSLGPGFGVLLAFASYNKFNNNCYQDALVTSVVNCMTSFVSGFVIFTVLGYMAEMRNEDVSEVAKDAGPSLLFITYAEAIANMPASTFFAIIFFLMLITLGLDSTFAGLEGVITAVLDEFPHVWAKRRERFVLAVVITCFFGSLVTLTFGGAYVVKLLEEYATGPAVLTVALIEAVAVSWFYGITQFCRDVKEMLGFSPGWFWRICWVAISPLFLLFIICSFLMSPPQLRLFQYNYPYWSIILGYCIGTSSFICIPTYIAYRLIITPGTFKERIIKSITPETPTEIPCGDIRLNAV

Structure (SMILES): C[C@]12C[C@@H](O)[C@@H]3C[C@@]1(O[C@@H]1O[C@H](CO)[C@@H](O)[C@H](O)[C@H]1O)[C@@]3(COC(=O)c1ccccc1)C(=O)O2 [albiflorin, Albiflorin]
- Ki (hSERT; Human, [3H]-citalopram, HEK293 cell line, read-out: Ki values, SERT binding): 0.00645 ± 0.00048 µM
- affinity relative to fluoxetine in human SERT binding assay (hSERT; albiflorin vs fluoxetine): 17 fold
- Ki (hNET [1]; Human, [3H]-nisoxetine, HEK293 cell line): 0.00123 ± 7e-05 µM
- affinity relative to desipramine in hNET binding assay (hNET [1]; albiflorin vs desipramine): 4 fold
- IC50 (hNET [2]): 0.00036 ± 8e-05 µM
- % Inhibition of binding at 10 μM albiflorin (D4): 19.50%
- IC50 (D4; [3]): > 10 µM
- % Inhibition of binding at 10 μM albiflorin (5-HT3; [3H]-BRL3694): 17.38%
- IC50 (5-HT3; [3H]-BRL3694, read-out: IC50 values for albiflorin): > 10 µM
- % Inhibition of binding at 10 μM albiflorin (5-HT7): 14.55%
- IC50 (5-HT7; [3]): > 10 µM
- % Inhibition of binding at 10 μM albiflorin (α1B): 12.33%
- IC50 (α1B; [3]): > 10 µM
- % Inhibition of binding at 10 μM albiflorin (β1): 63.22%
- IC50 (β1; [3]): 3.35 ± 0.212 µM
- % Inhibition of binding at 10 μM albiflorin (δ): 66.33%
- IC50 (δ; [3]): 3.66 ± 0.201 µM
- % Inhibition of binding at 10 μM albiflorin (H3): 12.33%
- IC50 (H3; [3]): > 10 µM
- effect on hypothalamic 5-HT levels (hypothalamic 5-HT levels; acute oral administration, 3.5, 7.0, 14.0 mg/kg, freely moving rats, vs vehicle): significant increase
- time of peak 5-HT increase post administration (hypothalamic 5-HT levels; oral, rats, microdialysis): 1 h
- effect on hypothalamic NE levels (hypothalamic NE levels; acute oral administration, 3.5, 7.0, 14.0 mg/kg, freely moving rats): dose- and time-dependent increase
- time of peak NE increase after administration (hypothalamic NE levels; oral, rats, microdialysis): 1 h
- antidepressant-like effect, tail-suspension test (duration of immobility): decreases in the duration of immobility
